Reference: patent US20230279020A9, “CARM1 INHIBITORS AND USES THEREOF” (Epizyme, Inc., priority 2013, published 2023)

What was measured:
Human CARM1 (PRMT4) = Human CARM1 (PRMT4) (Homo sapiens (Human), UniProt Q86X55); assay: CARM1 enzyme assay on peptide substrate (3H-SAM Flashplate); conditions: Biochemical potencies, classification codes; read-out: Biochem IC50
[1] = test system: asymmetric di-methyl PABP1 in RKO cells; assay: RKO methylation assay, In Cell Western (ICW) for asymmetric di-methyl PABP1; type: cell-based; conditions: Cellular potencies, PABP1me2a ICW
Source text: RKO adherent cells were purchased from ATCC (American Type Culture Collection), Manassas, Va., USA. DMEM/Glutamax medium, penicillin-streptomycin, heat inactivated fetal bovine serum, 0.05% trypsin and D-PBS were purchased from Life Technologies, Grand Island, N.Y., USA. Odyssey blocking buffer, 800CW goat anti-rabbit IgG (H+L) antibody, and Licor Odyssey infrared scanner were purchased from Licor Biosciences, Lincoln, Nebr., USA. Asymmetric di-methyl PABP1 antibody was purchased from Cell Signaling Technology, Danvers, Mass., USA. Methanol was purchased from VWR, Franklin, Mass., USA. 10% Tween 20 was purchased from KPL, Inc., Gaithersburg, Md., USA. Paraformaldehyde (PFA) was purchased from EM Sciences. DRAQ5 was purchased from Biostatus Limited, Leicestershire, UK.
RKO adherent cells were maintained in growth medium (DMEM/Glutamax medium supplemented with 10% v/v heat inactivated fetal bovine serum and 100 units/mL penicillin-streptomycin) and cultured at 37° C. under 5% CO2.
Cell treatment, In Cell Western (ICW) for detection of asymmetric di-methyl PABP1 and DNA content: RKO cells were seeded in assay medium at a concentration of 30,000 cells per mL to a poly-D-lysine coated 384 well culture plate (BD Biosciences 356697) with 50 μL per well. Compound (100 nL) from a 96-well source plate was added directly to 384 well cell plate. Plates were incubated at 37° C., 5% CO2 for 48 hours. After two days of incubation, plates were brought to room temperature outside of the incubator for ten minutes and blotted on paper towels to remove cell media. Cells were fixed for 20 minutes at room temperature by adding 50 ul of 8% PFA followed by aspiration of supernatant with the Biotek EL406 plate washer. Cells were then permeabilized by addition of 50 μL of ice cold 100% methanol directly to each well and incubated for 30 min at room temperature. After 30 min, plates were transferred to a Biotek EL406 plate washer and washed 2 times with 100 μL per well of wash buffer (1×PBS). Next 60 μL per well of Odyssey blocking buffer (Odyssey Buffer with 0.1% Tween 20 (v/v)) were added to each plate and incubated 1 hour at room temperature. Blocking buffer was removed and 20 μL per well of primary antibody was added (asymmetric-methyl PABP1) diluted 1:400 in Odyssey buffer with 0.1% Tween 20 (v/v)) and plates were incubated overnight (16 hours) at 4° C. Plates were washed 5 times with 100 μL per well of wash buffer. Next 20 μL per well of secondary antibody was added (1:800 800CW goat anti-rabbit IgG (H+L) antibody, 1:2000 DRAQ5 in Odyssey buffer with 0.1% Tween 20 (v/v)) and incubated for 1 hour at room temperature. The plates were washed 5 times with 100 μL per well wash buffer then 2 times with 100 μL per well of water. Plates were allowed to dry at room temperature then imaged on the Licor Odyssey machine which measures integrated intensity at 700 nm and 800 nm wavelengths. Both 700 and 800 channels were scanned.
First, the ratio for each well was determined by:
Each plate included fourteen control wells of DMSO only treatment (minimum inhibition) as well as fourteen control wells for maximum inhibition treated with 20 μM of a reference compound. The average of the ratio values for each control type was calculated and used to determine the percent […] for each test well in the plate. Reference compound was serially diluted three-fold in DMSO for a total of nine test concentrations, beginning at 20 μM.
Percent inhibition was determined and IC50 curves were generated using triplicate wells per concentration of compound.

U266B1 = assay: Human myeloma cell line 14-day proliferation assay (U266B1); type: cell-based; conditions: U266B1 Human Multiple Myeloma cell line, varying doses, FIG. 1B
Protocol: (§1) Human Multiple Myeloma cell lines NCI-H929 (FIG. 1A) and U266B1 (FIG. 1B) were treated with varying doses of 304-1a (medium grey data points), 23-3 (light grey data points), and 113-3 (black data points) in a 14-day proliferation assay. At the end of the experiment, total cell number was determined for each cell line for different doses of 304-1a, 23-3, and 113-3.

NCI-H929 = assay: Human myeloma cell line 14-day proliferation assay (NCI-H929); type: cell-based; conditions: NCI-H929 Human Multiple Myeloma cell line, varying doses, FIG. 1A
Protocol: as §1

Human CARM1 (PRMT4), sequence (Q86X55 other isoform, or with tags, fused parts or gaps isoform Q86X55-1): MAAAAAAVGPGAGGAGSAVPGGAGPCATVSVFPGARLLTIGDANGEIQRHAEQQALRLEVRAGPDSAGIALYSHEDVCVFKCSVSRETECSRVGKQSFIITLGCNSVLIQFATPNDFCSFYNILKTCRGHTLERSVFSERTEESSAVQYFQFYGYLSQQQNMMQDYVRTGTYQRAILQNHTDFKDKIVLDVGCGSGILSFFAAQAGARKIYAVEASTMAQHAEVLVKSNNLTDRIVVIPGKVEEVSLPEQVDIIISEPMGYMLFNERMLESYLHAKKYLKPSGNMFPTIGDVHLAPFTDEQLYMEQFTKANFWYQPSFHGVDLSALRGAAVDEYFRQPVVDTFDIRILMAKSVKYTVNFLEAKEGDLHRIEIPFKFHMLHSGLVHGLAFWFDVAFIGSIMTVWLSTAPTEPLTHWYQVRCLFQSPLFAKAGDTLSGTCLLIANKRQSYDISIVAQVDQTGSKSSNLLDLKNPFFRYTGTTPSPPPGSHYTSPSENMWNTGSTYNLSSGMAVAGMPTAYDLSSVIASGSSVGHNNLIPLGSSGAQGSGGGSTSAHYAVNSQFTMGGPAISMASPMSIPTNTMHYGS

SMILES	IC50 (Human CARM1 (PRMT4))	also measured
CCOC(=O)N1CCOC[C@@H]1CNc1nc(-c2cc(OC[C@H](O)CNC)ccc2Cl)nc(-c2c(C)noc2C)c1C [Example 23-3]	< 100 nM	cell proliferation (total cell number) (U266B1): decreased the proliferation; cell proliferation (total cell number) (NCI-H929): decreased the proliferation
CNCC(O)COc1cccc(-c2nc(NC3CCOC3=O)cc(-c3c(C)noc3C)n2)c1 (stereo not shown) [Example 24-1a]		IC50 [1]: 10000 to 20000 nM
CNC[C@@H](O)COc1ccc(Cl)c(-c2nc(-c3c(C)noc3C)c(C)c(N3Cc4cccnc4C3)n2)c1 [Example 113-3]	< 100 nM	cell proliferation (total cell number) (U266B1): decreased the proliferation; cell proliferation (total cell number) (NCI-H929): decreased the proliferation
CNCC(O)COc1cccc(-c2nc(-c3c(C)noc3C)c(C)c(N3CCO[C@H](CNC)C3)n2)c1 (stereo partly shown) [Example 129-1a]	< 100 nM	IC50 [1]: 10000 to 20000 nM
CNC[C@@H](O)COc1ccc(Cl)c(-c2nc(NC3CCN(C(=O)OC)CC3)c(Cl)c(-c3c(C)noc3C)n2)c1 [Example 304-1a]	< 100 nM	cell proliferation (total cell number) (U266B1): decreased the proliferation; cell proliferation (total cell number) (NCI-H929): decreased the proliferation
CNCC(O)COc1cccc(-c2nc(N[C@@H]3CCOC3)c(C)c(N3CCC(n4c(C)nnc4C)CC3)n2)c1 (stereo partly shown) [Example 390-1a]		IC50 ([1]; Homo sapiens, RKO): 5000 to 10000 nM
CNCC(O)COc1cccc(-c2nc(N[C@@H]3CCOC3)c(C)c(-c3ccc4nccn4c3)n2)c1 (stereo partly shown) [Example 445-1a]		IC50 ([1]; Homo sapiens, RKO): 10000 to 20000 nM
CCS(=O)(=O)n1cc(-c2cc(N(C)C3CCOCC3)nc(-c3cccc(OCC(O)CNC)c3)n2)c2cncnc21 (stereo not shown) [Example 484-1a]		IC50 ([1]; Homo sapiens, RKO): < 5000 nM
CNC[C@@H](O)COc1cccc(-c2nc(N3CC4(CCNCC4)c4ccccc43)cc(N(C)C3CCOCC3)n2)c1 [Example 558-1a]	< 100 nM	IC50 [1]: 10000 to 20000 nM
CNCC(O)COc1cc(Cl)cc(-c2nc(-c3ccncc3)c(C3CC3)c(N(C)C3CCOCC3)n2)c1 (stereo not shown) [Example 574-1a]	< 100 nM	
CNCC(O)COc1cccc(-c2nc(N3CCN4C(=O)OC[C@@H]4C3)cc(N(C)C3CCOCC3)n2)c1 (stereo partly shown) [Example 576-1a]	< 100 nM	
CNCC(O)COc1cc(Cl)cc(-c2nc(C(=O)N(C)CC3CCOCC3)cc(N(C)C3CCOCC3)n2)c1 (stereo not shown) [Example 577-1a]	< 100 nM	
CNCC(O)COc1cccc(-c2nc(N3CCN(CCF)[C@@H](C)C3)cc(N(C)C3CCOCC3)n2)c1 (stereo partly shown) [Example 578-1a]	< 100 nM	
CNCC(O)COc1cccc(-c2nc(N3CCC4(CCO4)CC3)cc(N(C)C3CCOCC3)n2)c1 (stereo not shown) [Example 579-1a]	< 100 nM	
CNCC(O)COc1cc(Cl)cc(-c2nc(-c3ccnc(N(C)C)c3)cc(N(C)C3CCOCC3)n2)c1 (stereo not shown) [Example 609-1a]	< 100 nM	
CNCC(O)COc1cc(Cl)cc(-c2nc(-c3cnn(C)c3)cc(N(C)C3CCOCC3)n2)c1 (stereo not shown) [Example 610-1a]	< 100 nM	
CNCC(O)COc1cc(Cl)cc(-c2nc(-c3cnc4ccccc4n3)c(C)c(N(C)C3CCOCC3)n2)c1 (stereo not shown) [Example 612-1a]	< 100 nM	

SMILES	IC50 (Human CARM1 (PRMT4))	also measured
CNCC(O)COc1cccc(-c2nc(-c3ccc(C(F)(F)F)nc3)cc(N(C)C3CCOCC3)n2)c1 (stereo not shown) [Example 613-1a]	< 100 nM	
CNCC(O)COc1cccc(-c2nc(C3CCNCC3)cc(N(C)C3CCOCC3)n2)c1 (stereo not shown) [Example 615-1a]	< 100 nM	
CNCC(O)COc1cccc(-c2nc(-c3cccc4ncccc34)cc(N(C)C3CCOCC3)n2)c1 (stereo not shown) [Example 616-1a]	< 100 nM	
CNCC(O)COc1cc(Cl)cc(-c2nc(-c3cn[nH]c3)c(C)c(N(C)C3CCOCC3)n2)c1 (stereo not shown) [Example 617-1a]	< 100 nM	
CNCC(O)COc1cc(Cl)cc(-c2nc(N(C)C3CCOCC3)c(C)c(-n3cccn3)n2)c1 (stereo not shown) [Example 618-1a]	< 100 nM	
C=C(C)c1cc(N(C)C2CCOCC2)nc(-c2cc(Cl)cc(OCC(O)CNC)c2)n1 (stereo not shown) [Example 619-1a]	< 100 nM	
CNCC(O)COc1cccc(-c2nc(-c3cnc4nccn4c3)cc(N(C)C3CCOCC3)n2)c1 (stereo not shown) [Example 620-1a]	< 100 nM	
CNCC(O)COc1cc(Cl)cc(-c2nc(C(=O)OC)cc(N(C)C3CCOCC3)n2)c1 (stereo not shown) [Example 623-1a]	< 100 nM	
CNCC(O)COc1cccc(-c2nc(-c3nc(C)cs3)cc(N(C)C3CCOCC3)n2)c1 (stereo not shown) [Example 624-1a]	< 100 nM	
CNCC(O)COc1cc(Cl)cc(-c2nc(-c3ccncc3)cc(N3CCOCC3)n2)c1 (stereo not shown) [Example 632-1a]	< 100 nM	
CNCC(O)COc1cccc(-c2nc(NC3CCOCC3)c(C)c(N3CCN(C(C)C)CC3)n2)c1 (stereo not shown) [Example 644-1a]	< 100 nM	
CNCC(O)COc1cccc(-c2nc(NC3CCOCC3)cc(-c3ccc4c(c3)OCCO4)n2)c1 (stereo not shown) [Example 657-1a]	< 100 nM	
CNCC(O)COc1cccc(-c2nc(NC3CCOCC3)cc(-c3ccc(OC)c(OC)c3)n2)c1 (stereo not shown) [Example 658-1a]	< 100 nM	
CNCC(O)COc1cccc(-c2nc(-c3ccncc3)cc(N(C)C3CCNCC3)n2)c1 (stereo not shown) [Example 669-1a]	< 100 nM	
CNCC(O)COc1cccc(-c2nc(C(=O)NC3CCOCC3)c(C)c(C(=O)NC3CCOCC3)n2)c1 (stereo not shown) [Example 677-1a]	> 10000 nM	
CCN(CC)c1nc(-c2cccc(OCC(O)CNC)c2)nc(N2CCOCC2)c1C (stereo not shown) [Example 682-1a]	< 100 nM	

Further lines, with some results ahead:

IC50 (Human CARM1 (PRMT4))	SMILES	also measured
< 100 nM	CNCC(O)COc1cccc(-c2nc(NC3CCOC3=O)cc(-c3c(C)noc3C)n2)c1 (stereo not shown) [Example 23-1a]	IC50 ([1]; Homo sapiens, RKO): 10000 to 20000 nM
< 100 nM	CNCC(O)COc1cccc(-c2nc(-c3c(C)noc3C)cc(N3C[C@@H]4C[C@H]3CN4C(=O)OC)n2)c1 (stereo partly shown) [Example 105-1a]	IC50 [1]: 5000 to 10000 nM
100 to 1000 nM	CNCC(O)COc1cccc(-c2nc(C3CCN(C(=O)N(C)C)[C@@H](C)C3)cc(N(C)C3CCOCC3)n2)c1 (stereo partly shown) [Example 509-1a]	IC50 ([1]; Homo sapiens, RKO): 5000 to 10000 nM
< 100 nM	CNCC(O)COc1cccc(-c2nc(N3CCNC(=O)C3)cc(N(C)C3CCOCC3)n2)c1 (stereo not shown) [Example 575-1a]	
< 100 nM	CNCC(O)COc1cccc(-c2nc(-c3cncn3C)cc(N(C)C3CCOCC3)n2)c1 (stereo not shown) [Example 580-1a]	
< 100 nM	CNCC(O)COc1cccc(-c2nc(N3CCN(C(=O)OC)[C@@H](C)C3)cc(N(C)C3CCOCC3)n2)c1 (stereo partly shown) [Example 581-1a]	
< 100 nM	CNCC(O)COc1cc(Cl)cc(-c2nc(-c3ccncc3)c(Br)c(N(C)C3CCOCC3)n2)c1 (stereo not shown) [Example 611-1a]	
< 100 nM	CNCC(O)COc1cc(Cl)cc(-c2nc(-c3ccc(N(C)C)nc3)c(C)c(N(C)C3CCOCC3)n2)c1 (stereo not shown) [Example 614-1a]	
< 100 nM	CNCC(O)COc1cccc(-c2nc(C3=CCCC3)cc(N(C)C3CCOCC3)n2)c1 (stereo not shown) [Example 621-1a]	
< 100 nM	CNCC(O)COc1cccc(-c2nc(-c3cccc(C#N)c3)cc(N(C)C3CCOCC3)n2)c1 (stereo not shown) [Example 622-1a]	
< 100 nM	CNCC(O)COc1cc(Cl)cc(-c2nc(NC3CCNCC3)cc(-c3ccncc3)n2)c1 (stereo not shown) [Example 665-1a]	
